Assay results taken from patent publication US8461124B2, “Five- and six-membered conformationally locked 2′,4′-carbocyclic ribo-thymidines for the treatment of infections and cancer” (priority 2007, dated 2013).

What was measured:
complementary DNA = experiment: Thermal denaturation (UV melting) of AON duplexes with complementary DNA; format: binding; conditions: for Tm/° C. with DNA: 1 μM of each strand, medium salt buffer pH 7.5, average of at least three runs; for ΔTm* (Tm relative to DNA compliment): relative to native AON 1/DNA duplex
complementary RNA = experiment: Thermal denaturation (UV melting) of AON duplexes with complementary RNA; format: binding; conditions: for Tm/° C. with RNA: 1 μM of each strand, medium salt buffer pH 7.5, average of at least three runs; for ΔTm (Tm relative to RNA compliment): relative to native AON 1/RNA duplex
Protocol: All 17 modified AONs have been purified as a single component on PAGE (20% polyacrylamide with 7 Molar urea), extracted with 0.3 M NaOAc and desalted with C-18 reverse phase cartridge to give AONs in >99% purity and correct mass have been obtained by MALDI-TOF mass spectroscopy for each one them (Table 1). Determination of the Tm of the AON/RNA hybrids was carried out in the following buffer: 57 mM Tris-HCl (pH 7.5), 57 mM KCl, 1 mM MgCl2. Absorbance was monitored at 260 nm in the temperature range from 20° C. to 90° C. using UV spectrophotometer equipped with Peltier temperature programmer with the heating rate of 1° C. per minute. Prior to measurements, the samples (1 μM of AON and 1 μM RNA mixture) were pre-annealed by heating to 90° C. for 5 min followed by slow cooling to 4° C. and 30 min equilibration at this temperature and are average of at least three independent runs.

[1] = Stability of 5′-32P-labeled AONs in human blood serum (PAGE autoradiography); format: in vitro ADME
Protocol: FIG. 4. Autoradiograms of 20% denaturing PAGE showing degradation patterns of 5′-^32P-labeled AONs in human blood serum (Table 1 for all AON sequences). Inset A: AON 1 and LNA-modified AONs 2-5. Inset B: Carbocyclic-LNA-modified AONs 6-9. Inset C: Carbocyclic-ENA-modified AONs 10-13 and Inset D: aza-ENA-modified AONs 14-17. Time points are taken after 0, ½, 1 h, 2 h, 5 h, 7 h, 9 h, 12 h, for AONs 1-5 and 0 h, 6 h, 8 h, 12 h, 24 h, 36 h and 48 h of incubation for AONs 6-17 at 21° C. (see Experimental Section for details).
Modified sequences (Table 1), ^32P-labeled at 5′-ends, were digested in human blood serum at 21° C. as shown in the PAGE autoradiograms (Insets A, B, C and D in FIG. 4). In order to understand
AONs (6 μL) at 2 μM concentration (5′-end ^32P labeled with specific activity 80 000 cpm) were incubated in […] of human blood serum (male AB) at 21° C. (total reaction volume was 36 μL) and the experiments were repeated twice up to 48 h. Aliquots (3 μL) were taken at 0, 30 min, 1, 2, 5, 7, 8, 9, 12, 24, 36, 48 h and quenched with 7 μL of solution containing 8 M urea and 50 mM EDTA, resolved in 20% polyacrylamide denaturing (7 M urea) gel electrophoresis and visualized by autoradiography. […] Since no new prominent cleavage products were found toward the later time points, we considered those prominent stable initial fragments as 100% during the last time points (12-48 h).

E. coli RNase H1 = E. coli RNase H1 (Escherichia coli, UniProt P0A7Y4); conditions: AON/RNA duplex
E. coli RNase H1, sequence (P0A7Y4 whole entry): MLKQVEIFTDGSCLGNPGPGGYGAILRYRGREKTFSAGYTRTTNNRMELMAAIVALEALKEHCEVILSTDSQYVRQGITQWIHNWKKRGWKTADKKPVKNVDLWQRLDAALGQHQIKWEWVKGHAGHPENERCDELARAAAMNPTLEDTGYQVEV
Protocol: Autoradiograms of 20% denaturing PAGE, showing the cleavage kinetics of 5′-^32P-labeled target RNA by E. coli RNase H1 in the AONs 1-17 after 2, 5, 10, 15, 30 and 60 min of incubation. Conditions of cleavage reactions: RNA (0.8 μM) and AONs (4 μM) in buffer containing 20 nM Tris-HCL (pH 8.0), 20 mM KCL, 10 mM Mgcl2, and 0.1 mM DTT at 21° C.; 0.04 U of RNase H1. Inset A: LNA-T modified AONs 2-5 with native AON 1. Inset B: carbocyclic-LNA-T modified AONs 6-9. Inset C: carbocyclic-ENA-T modified AONs 10-13 with native AON 1. Inset D: aza-ENA-T modified AONs 14-17 with native AON 1. The graphs in Insets E, F, G, and H show the kinetics of RNase H1 mediated cleavage of the target RNA, the remaining fraction of target RNA is measured densitometrically and plotted as a function of time fitted to a single exponential decay function. Inset E: AON 1 with AONs 2-5. Inset F: for AON 1 with AONs 6-9. Inset G: AON 1 and AONs 10-13. Inset H: AON 1 and AONs 14-17.
The cleavage rates of RNase H digestion were determined by densitometric quantification of gels and subsequently by plotting the uncleaved RNA fraction as a function of time (Insets E-H in FIG. 6). The reaction rates were obtained by fitting the degradation curves to single-exponential decay functions.

| Substance | Tm/° C. with DNA (complementary DNA) [°C] | ΔTm* (Tm relative to DNA compliment) (complementary DNA) | Tm/° C. with RNA (complementary RNA) [°C] | ΔTm (Tm relative to RNA compliment) (complementary RNA) | further results |
| --- | --- | --- | --- | --- | --- |
| 3′-d(CTT(6-carbo)CTTTTTTACTTC)-5′ (antisense CTTCTTTTTTACTTC; carbocyclic-ENA-T at position 3 from 3'-end, chemistry not fully specified) [AON 10, carbocyclic-ENA-T modified AON, position 3 from 3′-end] | 43.5 | −1.5 °C | 45.5 | +1.5 °C | time to give the n−1 fragment (hydrolysis of 3′-terminal nucleotide) ([1]; human blood serum, 21° C.): 2 h |
| 3′-d(CTTCTT(6-carbo)TTTTACTTC)-5′ [AON 11] | 39.5 | −5.5 °C | 45.5 | +1.5 °C | – |
| 3′-d(CTTCTT(aza-ENA)TTTTACTTC)-5′ (antisense CTTCTTTTTTACTTC; aza-ENA-T at position 6 from 3'-end, chemistry not fully specified) [AON 15, aza-ENA-T modified AON, position 6 from 3′-end] | 42.5 | −2.5 °C | 46.5 | +2.5 °C | – |
| 3′-d(CTTCTTTT(5-carbo)TTACTTC)-5′ (antisense CTTCTTTTTTACTTC; carbocyclic-LNA-T at position 8 from 3'-end, chemistry not fully specified) [AON 8, carbocyclic-LNA-T modified AON, position 8 from 3′-end] | 44 | −1.00 °C | 48 | +4 °C | – |
| 3′-d(CTTCTTTTTT(5-carbo)ACTTC)-5′ (antisense CTTCTTTTTTACTTC; carbocyclic-LNA-T at position 10 from 3'-end, chemistry not fully specified) [AON 9, carbocyclic-LNA-T modified AON, position 10 from 3′-end] | 43.0 | −2.00 °C | 47.5 | +3.5 °C | – |
| 3′-d(CTTCTTTTTT(aza-ENA)ACTTC)-5′ (antisense CTTCTTTTTTACTTC; aza-ENA-T at position 10 from 3'-end, chemistry not fully specified) [AON 17, aza-ENA-T modified AON, position 10 from 3′-end] | 42 | −3 °C | 48 | +4 °C | – |
| 3′-d(CTTCTTTT(6-carbo)TTACTTC)-5′ [AON 12] | 40.0 | −5.0 °C | 45.5 | +1.5 °C | – |
| 3′-d(CTTCTTTT(aza-ENA)TTACTTC)-5′ (antisense CTTCTTTTTTACTTC; aza-ENA-T at position 8 from 3'-end, chemistry not fully specified) [AON 16, aza-ENA-T modified AON, position 8 from 3′-end] | 42 | −3 °C | 47.5 | +3.5 °C | – |
| 3′-d(CTTCT T(LNA)TTTTACTTC)-5′ [AON 3] | 46.5 | +1.5 °C | 49 | +5 °C | – |
| (1R,3R,4R,5R,7S)-7-(2-(Cyanoethoxy-(diisopropylamino)-phosphinoxy)-1-(4,4′-dimethoxytrityloxy methyl)-3-(thymin-1-yl)-2-oxa-bicyclo[2.2.1]heptane [Compound 14] | 44.5 | −0.5 °C | 48 | +4 °C | – |
| 3′-d(CTT(LNA)CTTTTTTACTTC)-5′ (antisense CTTCTTTTTTACTTC; LNA-T at position 3 from 3'-end, chemistry not fully specified) [AON 2, LNA-T modified AON, position 3 from 3′-end] | 47 | +2 °C | 48 | +4 °C | serum stability compared with native AON 1 ([1]; human blood serum cleavage pattern): only slightly more stable than the native counterpart; time to full degradation ([1]; human blood serum, 21° C.): 9 h; time to give the n−1 fragment ([1]; human blood serum, 21° C.): 35 min; time to give the n−2 fragment as major product ([1]; human blood serum, 21° C.): 5 h |
| 3′-d(CTTCTTTTTTACTTC)-5′ (DNA, backbone not given here) [AON 1, native unmodified 15mer DNA antisense oligonucleotide] | 45 | – | 44 | – | RNase H cleavage pattern of the RNA compliment (E. coli RNase H1): cleaved quite randomly with a slight preference after A-8 position; time to full degradation ([1]; human blood serum, 21° C.): ≤ 12 h |
| 3′-d(CTTCTTTTTT(6-carbo)ACTTC)-5′ [AON 13] | 39.5 | −5.5 °C | 45.5 | +1.5 °C | – |
| 3′-d(CTT(5-carbo)CTTTTTTACTTC)-5′ (antisense CTTCTTTTTTACTTC; carbocyclic-LNA-T at position 3 from 3'-end, chemistry not fully specified) [AON 6, carbocyclic-LNA-T modified AON, position 3 from 3′-end] | 45 | 0.00 °C | 47.5 | +3.5 °C | time to give the n−1 fragment (hydrolysis of 3′-terminal nucleotide) ([1]; human blood serum, 21° C.): 2 h |
| 3′-d(CTT(aza-ENA)CTTTTTTACTTC)-5′ (antisense CTTCTTTTTTACTTC; aza-ENA-T at position 3 from 3'-end, chemistry not fully specified) [AON 14, aza-ENA-T modified AON, position 3 from 3′-end] | – | – | – | – | time to give the n−1 fragment (hydrolysis of 3′-terminal nucleotide) ([1]; human blood serum, 21° C.): ≤ 5 h; fraction of n−1 fragment ([1]; human blood serum, after 12 h): ca. 65%; fraction of n−2 fragment ([1]; human blood serum, after 12 h): ~35%; fraction of n−1 fragment ([1]; human blood serum, within 5 h): ca. 85%; fraction of n−2 fragment ([1]; human blood serum, within 5 h): ca. 15% |
| 3′-d(CTTCTT(5-carbo)TTTTACTTC)-5′ (antisense CTTCTTTTTTACTTC; carbocyclic-LNA-T at position 6 from 3'-end, chemistry not fully specified) [AON 7, carbocyclic-LNA-T modified AON, position 6 from 3′-end] | 44 | −1.00 °C | 49 | +5 °C | – |
| 3′-d(CTTCTTTTTT(LNA)ACTTC)-5′ (antisense CTTCTTTTTTACTTC; LNA-T at position 10 from 3'-end, chemistry not fully specified) [AON 5, LNA-T modified AON, position 10 from 3′-end] | 46 | +1 °C | 49 | +5 °C | – |
| 3′-d(CTTCTTTT(LNA)TTACTTC)-5′ (antisense CTTCTTTTTTACTTC; LNA-T at position 8 from 3'-end, chemistry not fully specified) [AON 4, LNA-T modified AON, position 8 from 3′-end] | 45.0 | 0.0 °C | 49 | +5 °C | – |
